{"source": "ChEMBL document CHEMBL3792311", "about": "“In vitro and in vivo activity of ML302F: a thioenolate inhibitor of VIM-subfamily metallo -lactamases” (Medchemcomm, 2016)", "key": {"Klebsiella oxytoca": {"tested_on": "Klebsiella oxytoca", "assay": "Antibacterial activity against VIM4 carbapenemase producing multidrug-resistant Klebsiella oxytoca 126 clinical isolate up to 512 mg/L by broth microtiter dilution method", "format": "functional, organism-based"}, "Pseudomonas aeruginosa [1]": {"tested_on": "Pseudomonas aeruginosa", "assay": "Potentiation of meropenem-induced antibacterial activity against VIM2 carbapenemase producing multidrug-resistant Pseudomonas aeruginosa 8 clinical isolate assessed as MIC of meropenem at 1:8 meropenem:compound ratio by broth microtiter dilution method", "format": "functional"}, "Pseudomonas aeruginosa [2]": {"tested_on": "Pseudomonas aeruginosa", "assay": "Potentiation of meropenem-induced antibacterial activity against VIM2 carbapenemase producing multidrug-resistant Pseudomonas aeruginosa GR64 clinical isolate assessed as MIC of meropenem at 1:8 meropenem:compound ratio by broth microtiter dilution method", "format": "functional"}, "Pseudomonas aeruginosa [3]": {"tested_on": "Pseudomonas aeruginosa", "assay": "Antibacterial activity against VIM2 carbapenemase producing multidrug-resistant Pseudomonas aeruginosa 11 clinical isolate up to 512 mg/L by broth microtiter dilution method", "format": "functional, organism-based"}, "Escherichia coli [4]": {"tested_on": "Escherichia coli", "assay": "Antibacterial activity against VIM4 carbapenemase producing multidrug-resistant Escherichia coli 98 clinical isolate infected in Galleria mellonella larvae assessed as survival rate at 4.8 mg/kg measured at 96 hrs", "format": "functional, organism-based"}, "Providencia stuartii [5]": {"tested_on": "Providencia stuartii", "assay": "Antibacterial activity against VIM1 carbapenemase producing multidrug-resistant Providencia stuartii 70 clinical isolate up to 512 mg/L by broth microtiter dilution method", "format": "functional, organism-based"}, "Pseudomonas aeruginosa [6]": {"tested_on": "Pseudomonas aeruginosa", "assay": "Potentiation of meropenem-induced antibacterial activity against VIM2 carbapenemase producing multidrug-resistant Pseudomonas aeruginosa 50 clinical isolate at 1:8 meropenem:compound ratio by checkerboard method", "format": "functional"}, "Pseudomonas aeruginosa [7]": {"tested_on": "Pseudomonas aeruginosa", "assay": "Antibacterial activity against VIM2 carbapenemase producing multidrug-resistant Pseudomonas aeruginosa 13 clinical isolate up to 512 mg/L by broth microtiter dilution method", "format": "functional, organism-based"}, "Providencia stuartii [8]": {"tested_on": "Providencia stuartii", "assay": "Potentiation of meropenem-induced antibacterial activity against VIM1 carbapenemase producing multidrug-resistant Providencia stuartii 70 clinical isolate assessed as MIC of meropenem at 1:8 meropenem:compound ratio by broth microtiter dilution method", "format": "functional"}, "Enterobacter cloacae": {"tested_on": "Enterobacter cloacae", "assay": "Potentiation of meropenem-induced antibacterial activity against VIM4 carbapenemase producing multidrug-resistant Enterobacter cloacae 102 clinical isolate at 1:8 meropenem:compound ratio by checkerboard method", "format": "functional"}, "Pseudomonas aeruginosa [9]": {"tested_on": "Pseudomonas aeruginosa", "assay": "Potentiation of meropenem-induced antibacterial activity against VIM2 carbapenemase producing multidrug-resistant Pseudomonas aeruginosa 15 clinical isolate at 1:8 meropenem:compound ratio by checkerboard method", "format": "functional"}, "Pseudomonas aeruginosa [10]": {"tested_on": "Pseudomonas aeruginosa", "assay": "Antibacterial activity against VIM2 carbapenemase producing multidrug-resistant Pseudomonas aeruginosa 3 clinical isolate up to 512 mg/L by broth microtiter dilution method", "format": "functional, organism-based"}, "Pseudomonas aeruginosa [11]": {"tested_on": "Pseudomonas aeruginosa", "assay": "Antibacterial activity against VIM2 carbapenemase producing multidrug-resistant Pseudomonas aeruginosa GR57 clinical isolate up to 512 mg/L by broth microtiter dilution method", "format": "functional, organism-based"}, "Pseudomonas aeruginosa [12]": {"tested_on": "Pseudomonas aeruginosa", "assay": "Potentiation of meropenem-induced antibacterial activity against VIM2 carbapenemase producing multidrug-resistant Pseudomonas aeruginosa 11 clinical isolate assessed as MIC of meropenem at 1:8 meropenem:compound ratio by broth microtiter dilution method", "format": "functional"}, "Pseudomonas aeruginosa [13]": {"tested_on": "Pseudomonas aeruginosa", "assay": "Potentiation of meropenem-induced antibacterial activity against VIM2 carbapenemase producing multidrug-resistant Pseudomonas aeruginosa 11 clinical isolate at 1:8 meropenem:compound ratio by checkerboard method", "format": "functional"}, "Klebsiella pneumoniae [14]": {"tested_on": "Klebsiella pneumoniae", "assay": "Antibacterial activity against VIM1 carbapenemase producing multidrug-resistant Klebsiella pneumoniae GR54 clinical isolate up to 512 mg/L by broth microtiter dilution method", "format": "functional, organism-based"}, "Klebsiella pneumoniae [15]": {"tested_on": "Klebsiella pneumoniae", "assay": "Potentiation of meropenem-induced antibacterial activity against VIM4 carbapenemase producing multidrug-resistant Klebsiella pneumoniae 196 clinical isolate at 1:8 meropenem:compound ratio by checkerboard method", "format": "functional"}, "Pseudomonas aeruginosa [16]": {"tested_on": "Pseudomonas aeruginosa", "assay": "Potentiation of meropenem-induced antibacterial activity against VIM2 carbapenemase producing multidrug-resistant Pseudomonas aeruginosa 50 clinical isolate assessed as MIC of meropenem at 1:8 meropenem:compound ratio by broth microtiter dilution method", "format": "functional"}, "Pseudomonas aeruginosa [17]": {"tested_on": "Pseudomonas aeruginosa", "assay": "Potentiation of meropenem-induced antibacterial activity against VIM2 carbapenemase producing multidrug-resistant Pseudomonas aeruginosa GR57 clinical isolate at 1:8 meropenem:compound ratio by checkerboard method", "format": "functional"}, "Escherichia coli [18]": {"tested_on": "Escherichia coli", "assay": "Potentiation of meropenem-induced antibacterial activity against VIM4 carbapenemase producing multidrug-resistant Escherichia coli 98 clinical isolate infected in Galleria mellonella larvae assessed as survival rate at 4.8 mg/kg measured at 96 hrs", "format": "functional", "conditions": "Escherichia coli, 98, 96 h"}, "Klebsiella pneumoniae [19]": {"tested_on": "Klebsiella pneumoniae", "assay": "Potentiation of meropenem-induced antibacterial activity against VIM1 carbapenemase producing multidrug-resistant Klebsiella pneumoniae 177 clinical isolate at 1:8 meropenem:compound ratio by checkerboard method", "format": "functional"}, "Pseudomonas aeruginosa [20]": {"tested_on": "Pseudomonas aeruginosa", "assay": "Potentiation of meropenem-induced antibacterial activity against VIM2 carbapenemase producing multidrug-resistant Pseudomonas aeruginosa 16 clinical isolate assessed as MIC of meropenem at 1:8 meropenem:compound ratio by broth microtiter dilution method", "format": "functional"}, "Pseudomonas aeruginosa [21]": {"tested_on": "Pseudomonas aeruginosa", "assay": "Antibacterial activity against VIM2 carbapenemase producing multidrug-resistant Pseudomonas aeruginosa 8 clinical isolate up to 512 mg/L by broth microtiter dilution method", "format": "functional, organism-based"}, "Providencia stuartii [22]": {"tested_on": "Providencia stuartii", "assay": "Potentiation of meropenem-induced antibacterial activity against VIM1 carbapenemase producing multidrug-resistant Providencia stuartii 67 clinical isolate assessed as MIC of meropenem at 1:8 meropenem:compound ratio by broth microtiter dilution method", "format": "functional"}, "Pseudomonas aeruginosa [23]": {"tested_on": "Pseudomonas aeruginosa", "assay": "Potentiation of meropenem-induced antibacterial activity against VIM2 carbapenemase producing multidrug-resistant Pseudomonas aeruginosa 12 clinical isolate at 1:8 meropenem:compound ratio by checkerboard method", "format": "functional"}, "Escherichia coli [24]": {"tested_on": "Escherichia coli", "assay": "Potentiation of meropenem-induced antibacterial activity against VIM4 carbapenemase producing multidrug-resistant Escherichia coli 98 clinical isolate infected in Galleria mellonella larvae assessed as relative risk of survival at 4.8 mg/kg measured at 96 hrs relative to control", "format": "functional"}, "Klebsiella pneumoniae [25]": {"tested_on": "Klebsiella pneumoniae", "assay": "Potentiation of meropenem-induced antibacterial activity against VIM4 carbapenemase producing multidrug-resistant Klebsiella pneumoniae 101 clinical isolate at 1:8 meropenem:compound ratio by checkerboard method", "format": "functional"}, "Pseudomonas aeruginosa [26]": {"tested_on": "Pseudomonas aeruginosa", "assay": "Potentiation of meropenem-induced antibacterial activity against VIM2 carbapenemase producing multidrug-resistant Pseudomonas aeruginosa 15 clinical isolate assessed as MIC of meropenem at 1:8 meropenem:compound ratio by broth microtiter dilution method", "format": "functional"}, "Pseudomonas aeruginosa [27]": {"tested_on": "Pseudomonas aeruginosa", "assay": "Potentiation of meropenem-induced antibacterial activity against VIM2 carbapenemase producing multidrug-resistant Pseudomonas aeruginosa 30 clinical isolate at 1:8 meropenem:compound ratio by checkerboard method", "format": "functional"}, "Pseudomonas aeruginosa [28]": {"tested_on": "Pseudomonas aeruginosa", "assay": "Potentiation of meropenem-induced antibacterial activity against VIM2 carbapenemase producing multidrug-resistant Pseudomonas aeruginosa GR58 clinical isolate assessed as MIC of meropenem at 1:8 meropenem:compound ratio by broth microtiter dilution method", "format": "functional"}, "Pseudomonas aeruginosa [29]": {"tested_on": "Pseudomonas aeruginosa", "assay": "Antibacterial activity against VIM2 carbapenemase producing multidrug-resistant Pseudomonas aeruginosa 27 clinical isolate up to 512 mg/L by broth microtiter dilution method", "format": "functional, organism-based"}, "Klebsiella pneumoniae [30]": {"tested_on": "Klebsiella pneumoniae", "assay": "Antibacterial activity against VIM4 carbapenemase producing multidrug-resistant Klebsiella pneumoniae 120 clinical isolate up to 512 mg/L by broth microtiter dilution method", "format": "functional, organism-based"}, "[31]": {"assay": "Toxicity in Galleria mellonella larvae assessed as survival rate up to 80 mg/kg measured at 96 hrs", "format": "organism-based", "conditions": "in vivo"}, "Pseudomonas aeruginosa [32]": {"tested_on": "Pseudomonas aeruginosa", "assay": "Antibacterial activity against VIM2 carbapenemase producing multidrug-resistant Pseudomonas aeruginosa GR58 clinical isolate up to 512 mg/L by broth microtiter dilution method", "format": "functional, organism-based"}, "Pseudomonas aeruginosa [33]": {"tested_on": "Pseudomonas aeruginosa", "assay": "Potentiation of meropenem-induced antibacterial activity against VIM2 carbapenemase producing multidrug-resistant Pseudomonas aeruginosa 16 clinical isolate at 1:8 meropenem:compound ratio by checkerboard method", "format": "functional"}, "Providencia stuartii [34]": {"tested_on": "Providencia stuartii", "assay": "Potentiation of meropenem-induced antibacterial activity against VIM1 carbapenemase producing multidrug-resistant Providencia stuartii 70 clinical isolate at 1:8 meropenem:compound ratio by checkerboard method", "format": "functional"}}, "note": "The source made the active and inactive calls. The calls are words filed in the database; no cut-off is given here.", "data": [{"smiles": "O=C(O)/C(S)=C/c1c(Cl)ccc(Cl)c1Cl", "values": [{"measurement": "Activity", "setting": "Klebsiella oxytoca", "value": "inactive"}, {"measurement": "MIC", "setting": "Pseudomonas aeruginosa [1]", "value": 16, "unit": "µg/mL"}, {"measurement": "MIC", "setting": "Pseudomonas aeruginosa [2]", "value": 4, "unit": "µg/mL"}, {"measurement": "Activity", "setting": "Pseudomonas aeruginosa [3]", "value": "inactive"}, {"measurement": "Activity", "setting": "Escherichia coli [4]", "value": "Active"}, {"measurement": "Activity", "setting": "Providencia stuartii [5]", "value": "inactive"}, {"measurement": "fractional inhibitory concentration index (FICI)", "setting": "Pseudomonas aeruginosa [6]", "value": 0.38}, {"measurement": "Activity", "setting": "Pseudomonas aeruginosa [7]", "value": "inactive"}, {"measurement": "MIC", "setting": "Providencia stuartii [8]", "value": 1, "unit": "µg/mL"}, {"measurement": "fractional inhibitory concentration index (FICI)", "setting": "Enterobacter cloacae", "value": 0.19}, {"measurement": "fractional inhibitory concentration index (FICI)", "setting": "Pseudomonas aeruginosa [9]", "value": 0.5}, {"measurement": "Activity", "setting": "Pseudomonas aeruginosa [10]", "value": "inactive"}, {"measurement": "Activity", "setting": "Pseudomonas aeruginosa [11]", "value": "inactive"}, {"measurement": "MIC", "setting": "Pseudomonas aeruginosa [12]", "value": 2, "unit": "µg/mL"}, {"measurement": "fractional inhibitory concentration index (FICI)", "setting": "Pseudomonas aeruginosa [13]", "value": 0.09}, {"measurement": "Activity", "setting": "Klebsiella pneumoniae [14]", "value": "inactive"}, {"measurement": "fractional inhibitory concentration index (FICI)", "setting": "Klebsiella pneumoniae [15]", "value": 0.08}, {"measurement": "MIC", "setting": "Pseudomonas aeruginosa [16]", "value": 8, "unit": "µg/mL"}, {"measurement": "fractional inhibitory concentration index (FICI)", "setting": "Pseudomonas aeruginosa [17]", "value": 0.19}, {"measurement": "survival at 4.8 mg/kg", "setting": "Escherichia coli [18]", "value": 69, "unit": "%"}, {"measurement": "fractional inhibitory concentration index (FICI)", "setting": "Klebsiella pneumoniae [19]", "value": 1.02}, {"measurement": "MIC", "setting": "Pseudomonas aeruginosa [20]", "value": 16, "unit": "µg/mL"}, {"measurement": "Activity", "setting": "Pseudomonas aeruginosa [21]", "value": "inactive"}, {"measurement": "MIC", "setting": "Providencia stuartii [22]", "value": 1, "unit": "µg/mL"}, {"measurement": "fractional inhibitory concentration index (FICI)", "setting": "Pseudomonas aeruginosa [23]", "value": 0.75}, {"measurement": "fold change (FC)", "setting": "Escherichia coli [24]", "value": 0.64}, {"measurement": "fractional inhibitory concentration index (FICI)", "setting": "Klebsiella pneumoniae [25]", "value": 0.09}, {"measurement": "MIC", "setting": "Pseudomonas aeruginosa [26]", "value": 16, "unit": "µg/mL"}, {"measurement": "fractional inhibitory concentration index (FICI)", "setting": "Pseudomonas aeruginosa [27]", "value": 0.25}, {"measurement": "MIC", "setting": "Pseudomonas aeruginosa [28]", "value": 8, "unit": "µg/mL"}, {"measurement": "Activity", "setting": "Pseudomonas aeruginosa [29]", "value": "inactive"}, {"measurement": "Activity", "setting": "Klebsiella pneumoniae [30]", "value": "inactive"}, {"measurement": "survival at 96 h", "setting": "[31]", "value": 100, "unit": "%"}, {"measurement": "Activity", "setting": "Pseudomonas aeruginosa [32]", "value": "inactive"}, {"measurement": "fractional inhibitory concentration index (FICI)", "setting": "Pseudomonas aeruginosa [33]", "value": 0.5}, {"measurement": "fractional inhibitory concentration index (FICI)", "setting": "Providencia stuartii [34]", "value": 0.14}]}]}
